In ChEMBL document CHEMBL5390237, “Discovery of Selective Histone Deacetylase 1 and 2 Inhibitors: Screening of a Focused Library Constructed by Click Chemistry, Kinetic Binding Analysis, and Biological Evaluation” (J Med Chem, 2023):

Biological target: Histone deacetylase 2 (Homo sapiens, UniProt Q92769)
Assay: Inhibition of full-length recombinant human C-terminal GST tagged HDAC2 expressed in Sf9 insect cells using aminoluciferin peptide substrate at 100 nM preincubated for 3 hrs followed by substrate addition and measured after 30 mins by HDAC-Glo I/II chemiluminescence assay
Conditions: time 3.5 hrs

Histone deacetylase 2, sequence (Q92769 whole entry): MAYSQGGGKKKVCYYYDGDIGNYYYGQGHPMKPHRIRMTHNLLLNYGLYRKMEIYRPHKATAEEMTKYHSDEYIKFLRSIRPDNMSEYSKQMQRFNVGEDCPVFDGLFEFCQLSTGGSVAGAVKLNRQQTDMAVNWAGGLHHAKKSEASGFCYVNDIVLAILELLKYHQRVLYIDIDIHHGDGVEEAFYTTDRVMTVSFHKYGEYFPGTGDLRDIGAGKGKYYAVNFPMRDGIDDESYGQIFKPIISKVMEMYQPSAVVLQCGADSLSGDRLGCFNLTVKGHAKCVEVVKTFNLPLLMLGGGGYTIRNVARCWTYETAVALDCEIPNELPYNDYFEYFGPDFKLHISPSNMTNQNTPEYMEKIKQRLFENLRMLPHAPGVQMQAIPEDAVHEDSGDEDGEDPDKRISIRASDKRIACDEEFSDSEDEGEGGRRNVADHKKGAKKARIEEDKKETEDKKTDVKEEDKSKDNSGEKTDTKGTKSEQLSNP

Row | SMILES | inhibition [%]
1 | Nc1ccc(-c2cccs2)cc1NC(=O)CCc1cn(Cc2cccc(-c3ccccc3)c2)nn1 | 0
2 | Nc1ccc(-c2cccs2)cc1NC(=O)c1cccc(-c2cn(CCc3ccccn3)nn2)c1 | 33
3 | Nc1ccc(-c2cccnc2)cc1NC(=O)CCc1cn(CCc2cccc3ccccc23)nn1 | 13
4 | Nc1ccc(-c2cccs2)cc1NC(=O)c1ccc(-c2cn(-c3cccc4ccccc34)nn2)s1 | 0
5 | Nc1ccc(-c2cccs2)cc1NC(=O)c1ccc(-c2cn(CCc3cccc(Cl)c3)nn2)cc1 | 22
6 | Nc1ccc(-c2cccs2)cc1NC(=O)CCc1cn(CCc2ccccn2)nn1 | 7
7 | Nc1ccc(-c2ccccc2)cc1NC(=O)CCc1cn(Cc2cccc(C(=O)O)c2)nn1 | 0
8 | Nc1ccc(-c2cccs2)cc1NC(=O)c1cccc(-c2cn(CCc3ccccc3Cl)nn2)c1 | 0
9 | Nc1ccc(-c2cccnc2)cc1NC(=O)CCc1cn(CCc2cccc(Cl)c2)nn1 | 30
10 | Nc1ccc(-c2ccccc2)cc1NC(=O)c1cn(-c2ccccc2-c2ccccc2)nn1 | 0
11 | Nc1ccc(-c2cccs2)cc1NC(=O)c1ccc(-c2cn(CCc3ccc(F)cc3)nn2)s1 | 18
12 | Nc1ccc(-c2ccccc2)cc1NC(=O)CCc1cn(-c2ccc([N+](=O)[O-])cc2)nn1 | 0
13 | Nc1ccc(-c2ccc(F)cc2)cc1NC(=O)CCc1cn(CCc2ccccc2Cl)nn1 | 4
14 | COc1ccc(-n2cc(-c3cccc(C(=O)Nc4cc(-c5cccs5)ccc4N)c3)nn2)cc1 | 14
15 | Nc1ccc(-c2cccs2)cc1NC(=O)c1cccc(-c2cn(CCc3ccc([N+](=O)[O-])cc3)nn2)c1 | 1
16 | Nc1ccc(-c2cccs2)cc1NC(=O)c1ccc(-c2cn(-c3ccc([N+](=O)[O-])cc3)nn2)s1 | 7
17 | COc1ccc(Cn2cc(CCC(=O)Nc3cc(-c4ccc(F)cc4)ccc3N)nn2)cc1 | 17
18 | Nc1ccc(-c2ccc(F)cc2)cc1NC(=O)CCc1cn(CCc2ccccc2[N+](=O)[O-])nn1 | 20
19 | Cc1ccc(-n2cc(CCC(=O)Nc3cc(-c4ccc(F)cc4)ccc3N)nn2)cc1C | 0
20 | Nc1ccc(-c2cccs2)cc1NC(=O)c1cn(CCCCCC(=O)O)nn1 | 0
21 | Nc1ccc(-c2ccc(F)cc2)cc1NC(=O)CCc1cn(CCc2cccc(Cl)c2)nn1 | 17
22 | Nc1ccc(-c2ccc(F)cc2)cc1NC(=O)CCc1cn(-c2cccc3ccccc23)nn1 | 0

Row | SMILES | inhibition [%]
23 | COc1ccc(-n2cc(CCC(=O)Nc3cc(-c4ccccc4)ccc3N)nn2)cc1 | 11
24 | Nc1ccc(-c2ccc(F)cc2)cc1NC(=O)CCc1cn(CCCCC(=O)O)nn1 | 0
25 | COc1ccc(CCn2cc(C(=O)Nc3cc(-c4ccc(F)cc4)ccc3N)nn2)cc1 | 16
26 | Cc1cccc(C)c1NC(=O)Cn1cc(CCC(=O)Nc2cc(-c3ccc(F)cc3)ccc2N)nn1 | 18
27 | Nc1ccc(-c2cccs2)cc1NC(=O)c1ccc(-c2cn(Cc3cccc4ccccc34)nn2)cc1 | 14
28 | Nc1ccc(-c2ccccc2)cc1NC(=O)CCc1cn(CS(=O)(=O)c2ccccc2)nn1 | 9
29 | Nc1ccc(-c2cccs2)cc1NC(=O)c1ccc(-c2cn(-c3cccc4ccccc34)nn2)cc1 | 0
30 | COc1ccccc1CCn1cc(CCC(=O)Nc2cc(-c3cccnc3)ccc2N)nn1 | 10
31 | Nc1ccc(-c2cccs2)cc1NC(=O)c1cccc(-c2cn(CCCCC(=O)O)nn2)c1 | 48
32 | Cc1ccccc1CCn1cc(-c2cccc(C(=O)Nc3cc(-c4cccs4)ccc3N)c2)nn1 | 0
33 | Nc1ccc(-c2ccsc2)cc1NC(=O)CCc1cn(CCC2CCCC2)nn1 | 0
34 | Nc1ccc(-c2cccs2)cc1NC(=O)c1ccc(-c2cn(CCc3ccccc3)nn2)cc1 | 65
35 | Nc1ccc(-c2cccs2)cc1NC(=O)CCc1cn(CCc2cccc([N+](=O)[O-])c2)nn1 | 27
36 | Cc1ccc(CCn2cc(CCC(=O)Nc3cc(-c4ccsc4)ccc3N)nn2)cc1 | 24
37 | Cc1ccccc1CCn1cc(CCC(=O)Nc2cc(-c3ccc(F)cc3)ccc2N)nn1 | 7
38 | Nc1ccc(-c2cccs2)cc1NC(=O)c1ccc(-c2cn(-c3ccc(Br)cc3)nn2)s1 | 0
39 | Nc1ccc(-c2cccs2)cc1NC(=O)c1cccc(-c2cn(CCC3CCCCC3)nn2)c1 | 0
40 | Nc1ccc(-c2cccs2)cc1NC(=O)CCc1cn(Cc2ccc(C(=O)O)cc2)nn1 | 31
41 | Nc1ccc(-c2cccs2)cc1NC(=O)CCc1cn(CCc2ccccc2[N+](=O)[O-])nn1 | 24
42 | Nc1ccc(-c2cccs2)cc1NC(=O)CCc1cn(Cc2cccc3ccccc23)nn1 | 9
43 | Nc1ccc(-c2ccsc2)cc1NC(=O)c1cn(CCC23CC4CC(CC(C4)C2)C3)nn1 | 0
44 | Nc1ccc(-c2cccs2)cc1NC(=O)CCc1cn(CCc2ccc(F)cc2)nn1 | 11

Row | SMILES | inhibition [%]
45 | Cc1ccc(CCn2cc(-c3cccc(C(=O)Nc4cc(-c5cccs5)ccc4N)c3)nn2)cc1 | 4
46 | Nc1ccc(-n2cc(CCC(=O)Nc3cc(-c4ccccc4)ccc3N)nn2)cc1 | 18
47 | Nc1ccc(-c2cccs2)cc1NC(=O)c1ccc(-c2cn(CCc3cccc(F)c3)nn2)cc1 | 22
48 | Cc1cccc(C)c1NC(=O)Cn1cc(CCC(=O)Nc2cc(-c3ccccc3)ccc2N)nn1 | 19
49 | COc1ccc(-n2cc(CCC(=O)Nc3cc(-c4cccnc4)ccc3N)nn2)cc1 | 9
50 | Nc1ccc(-c2ccc(F)cc2)cc1NC(=O)c1cn(CCCCC(=O)O)nn1 | 22
51 | Nc1ccc(-c2cccs2)cc1NC(=O)c1cccc(-c2cn(CCCCCCCC(=O)O)nn2)c1 | 3
52 | Nc1ccc(-c2cccs2)cc1NC(=O)c1ccc(-c2cn(CCN3CCOCC3)nn2)cc1 | 75
53 | Nc1ccc(-c2cccs2)cc1NC(=O)c1cccc(-c2cn(CCc3ccc(C(F)(F)F)cc3)nn2)c1 | 0
54 | Nc1ccc(-c2cccs2)cc1NC(=O)c1cccc(-c2cn(-c3ccc([N+](=O)[O-])cc3)nn2)c1 | 5
55 | Nc1ccc(-c2cccs2)cc1NC(=O)c1ccc(-c2cn(Cc3ccc4ccccc4n3)nn2)cc1 | 52
56 | Nc1ccc(-c2cccnc2)cc1NC(=O)CCc1cn(-c2ccc(O)cc2)nn1 | 0
57 | Nc1ccc(-n2cc(CCC(=O)Nc3cc(-c4cccs4)ccc3N)nn2)cc1 | 25
58 | Nc1ccc(-c2cccs2)cc1NC(=O)c1ccc(-c2cn(-c3ccc(Br)cc3)nn2)cc1 | 0
59 | Nc1ccc(-n2cc(CCC(=O)Nc3cc(-c4ccsc4)ccc3N)nn2)cc1 | 24
60 | Nc1ccc(-c2cccnc2)cc1NC(=O)CCc1cn(Cc2ccc3ccccc3n2)nn1 | 3
61 | Nc1ccc(-c2cccs2)cc1NC(=O)c1ccc(-c2cn(CCCCCCC(=O)O)nn2)s1 | 28
62 | Nc1ccc(-c2cccs2)cc1NC(=O)c1cn(CCCCC(=O)O)nn1 | 3
63 | Nc1ccc(-c2ccc(F)cc2)cc1NC(=O)CCc1cn(CC(=O)Nc2ccc(F)cc2)nn1 | 16
64 | Nc1ccc(-c2cccs2)cc1NC(=O)c1cccc(-c2cn(Cc3nc4ccccc4[nH]3)nn2)c1 | 32
65 | Cc1csc(CCn2cc(C(=O)Nc3cc(-c4cccs4)ccc3N)nn2)n1 | 15

Next, values leading:

Row | inhibition [%] | SMILES
66 | 0 | Cc1ccccc1CCn1cc(C(=O)Nc2cc(-c3ccsc3)ccc2N)nn1
67 | 24 | Cc1cccc(C)c1NC(=O)Cn1cc(C(=O)Nc2cc(-c3ccsc3)ccc2N)nn1
68 | 0 | Nc1ccc(-c2ccsc2)cc1NC(=O)c1cn(CCCCCC(=O)O)nn1
69 | 25 | Nc1ccc(-c2ccsc2)cc1NC(=O)CCc1cn(Cc2nc3ccccc3[nH]2)nn1
70 | 3 | Nc1ccc(-c2cccs2)cc1NC(=O)c1cn(CCc2ccccc2Cl)nn1
71 | 1 | Nc1ccc(-c2ccc(F)cc2)cc1NC(=O)c1cn(CCc2ccsc2)nn1
72 | 0 | Nc1ccc(-c2cccs2)cc1NC(=O)c1cccc(-c2cn(Cc3cc4ccccc4s3)nn2)c1
73 | 8 | Nc1ccc(-c2ccsc2)cc1NC(=O)c1cn(CCCCCCC(=O)O)nn1
74 | 0 | Nc1ccc(-c2ccccc2)cc1NC(=O)CCc1cn(Cc2cc3ccccc3s2)nn1
75 | 23 | Nc1ccc(-c2ccsc2)cc1NC(=O)CCc1cn(CCc2ccccc2[N+](=O)[O-])nn1
76 | 27 | Nc1ccc(-c2cccs2)cc1NC(=O)c1ccc(-c2cn(CCc3ccsc3)nn2)s1
77 | 2 | Nc1ccc(-c2ccsc2)cc1NC(=O)CCc1cn(-c2ccccc2-c2ccccc2)nn1
78 | 0 | Nc1ccc(-c2ccsc2)cc1NC(=O)c1cn(Cc2cc3ccccc3s2)nn1
79 | 0 | Nc1ccc(-c2ccccc2)cc1NC(=O)c1cn(Cc2ccc(OC(F)(F)F)cc2)nn1
80 | 17 | Nc1ccc(-c2cccs2)cc1NC(=O)c1cn(Cc2ccc3ccccc3c2)nn1
81 | 0 | Nc1ccc(-c2ccccc2)cc1NC(=O)c1cn(-c2cccc3ccccc23)nn1
82 | 16 | Nc1ccc(-c2ccsc2)cc1NC(=O)CCc1cn(Cc2ccc3ccccc3c2)nn1
83 | 27 | Nc1ccc(-c2cccs2)cc1NC(=O)CCc1cn(Cc2cc3ccccc3s2)nn1
84 | 14 | Nc1ccc(-c2cccs2)cc1NC(=O)c1cn(Cc2ccc(OC(F)(F)F)cc2)nn1
85 | 0 | Nc1ccc(-c2ccccc2)cc1NC(=O)c1cn(CC(=O)c2ccccc2)nn1
86 | 22 | Nc1ccc(-c2ccc(F)cc2)cc1NC(=O)c1cn(CCN2CCc3ccccc3C2)nn1
87 | 0 | Nc1ccc(-c2ccc(F)cc2)cc1NC(=O)c1cn(CCc2ccc(Cl)cc2)nn1
88 | 0 | Nc1ccc(-c2ccccc2)cc1NC(=O)c1cn(CCc2cccc(-c3ccccc3)c2)nn1
89 | 5 | Nc1ccc(-c2cccs2)cc1NC(=O)c1ccc(-c2cn(CCc3ccccc3Cl)nn2)s1
90 | 3 | Nc1ccc(-c2ccsc2)cc1NC(=O)c1cn(Cc2ccc3ccccc3c2)nn1
91 | 0 | Nc1ccc(-c2cccs2)cc1NC(=O)c1cn(CCc2ccc(Cl)cc2)nn1
92 | 11 | Cc1cccc(CCn2cc(C(=O)Nc3cc(-c4cccs4)ccc3N)nn2)c1
93 | 0 | Nc1ccc(-c2ccsc2)cc1NC(=O)c1cn(CCCCCc2ccccc2)nn1
94 | 0 | Nc1ccc(-c2ccccc2)cc1NC(=O)c1cn(CCc2ccccc2Cl)nn1
